Laboratory results: PubChem BioAssay AID1259407 (Chemical Carcinogenesis Research Information System (CCRIS), 2018)
Activity calls are given as the source filed them. How the calls were made is not given here.

Test system: CCRIS mutagenicity, Ames/micronucleus/aberration tests
Experiment: CCRIS mutagenicity studies
[1] = Test System: AMES SALMONELLA TYPHIMURIUM, Strain/Indicator: TA98, Metabolic Activation: NONE, Method: PREINCUBATION
[2] = Test System: AMES SALMONELLA TYPHIMURIUM, Strain/Indicator: TA100, Metabolic Activation: NONE, Method: PREINCUBATION

## S=C(NC1CCCCC1)NC1CCCCC1
Test System: AMES SALMONELLA TYPHIMURIUM, Strain/Indicator: TA97, Metabolic Activation: HAMSTER, LIVER, S-9, AROCLOR 1254 (10 OR 30%), Method: PREINCUBATION
  mutagenic call: inactive; negative
Test System: AMES SALMONELLA TYPHIMURIUM, Strain/Indicator: TA97, Metabolic Activation: NONE, Method: PREINCUBATION
  mutagenic call: inactive; negative
Test System: AMES SALMONELLA TYPHIMURIUM, Strain/Indicator: TA97, Metabolic Activation: RAT, LIVER, S-9, AROCLOR 1254 (10%), Method: PREINCUBATION
  mutagenic call: inactive; negative
Test System: AMES SALMONELLA TYPHIMURIUM, Strain/Indicator: TA97, Metabolic Activation: RAT, LIVER, S-9, AROCLOR 1254 (30%), Method: PREINCUBATION
  mutagenic call: inactive; negative
Test System: AMES SALMONELLA TYPHIMURIUM, Strain/Indicator: TA98, Metabolic Activation: HAMSTER, LIVER, S-9, AROCLOR 1254 (10 OR 30%), Method: PREINCUBATION
  mutagenic call: inactive; negative
[1]
  mutagenic call: inactive; negative
Test System: AMES SALMONELLA TYPHIMURIUM, Strain/Indicator: TA98, Metabolic Activation: RAT, LIVER, S-9, AROCLOR 1254 (10 OR 30%), Method: PREINCUBATION
  mutagenic call: inactive; negative
Test System: AMES SALMONELLA TYPHIMURIUM, Strain/Indicator: TA100, Metabolic Activation: HAMSTER, LIVER, S-9, AROCLOR 1254 (10 OR 30%), Method: PREINCUBATION
  mutagenic call: inactive; negative
[2]
  mutagenic call: inactive; negative
Test System: AMES SALMONELLA TYPHIMURIUM, Strain/Indicator: TA100, Metabolic Activation: RAT, LIVER, S-9, AROCLOR 1254 (10 OR 30%), Method: PREINCUBATION
  mutagenic call: inactive; negative
Test System: AMES SALMONELLA TYPHIMURIUM, Strain/Indicator: TA1535, Metabolic Activation: HAMSTER, LIVER, S-9, AROCLOR 1254 (10 OR 30%), Method: PREINCUBATION
  mutagenic call: inactive; negative
Test System: AMES SALMONELLA TYPHIMURIUM, Strain/Indicator: TA1535, Metabolic Activation: NONE, Method: PREINCUBATION
  mutagenic call: inactive; negative
Test System: AMES SALMONELLA TYPHIMURIUM, Strain/Indicator: TA1535, Metabolic Activation: RAT, LIVER, S-9, AROCLOR 1254 (10 OR 30%), Method: PREINCUBATION
  mutagenic call: inactive; negative
Test System: AMES SALMONELLA TYPHIMURIUM, Strain/Indicator: TA1537, Metabolic Activation: HAMSTER, LIVER, S-9, AROCLOR 1254 (10%), Method: PREINCUBATION
  mutagenic call: inactive; negative
Test System: E. COLI, Strain/Indicator: WP2 UVRA, Metabolic Activation: HAMSTER, LIVER, S-9, AROCLOR 1254, Method: STANDARD PLATE
  mutagenic call: inactive; negative
Test System: E. COLI, Strain/Indicator: WP2 UVRA, Metabolic Activation: HAMSTER, LIVER, S-9, Method: STANDARD PLATE
  mutagenic call: inactive; negative
Test System: E. COLI, Strain/Indicator: WP2 UVRA, Metabolic Activation: MOUSE, LIVER, S-9, AROCLOR 1254, Method: STANDARD PLATE
  mutagenic call: inactive; negative
Test System: E. COLI, Strain/Indicator: WP2 UVRA, Metabolic Activation: MOUSE, LIVER, S-9, Method: STANDARD PLATE
  mutagenic call: inactive; negative
Test System: E. COLI, Strain/Indicator: WP2 UVRA, Metabolic Activation: NONE, Method: STANDARD PLATE
  mutagenic call: inactive; negative
Test System: E. COLI, Strain/Indicator: WP2 UVRA, Metabolic Activation: RAT, LIVER, S-9, AROCLOR 1254, Method: STANDARD PLATE
  mutagenic call: inactive; negative
Test System: E. COLI, Strain/Indicator: WP2 UVRA, Metabolic Activation: RAT, LIVER, S-9, Method: STANDARD PLATE
  mutagenic call: inactive; negative
Test System: MOUSE LYMPHOMA, Strain/Indicator: L5178Y (TK+/TK-), Metabolic Activation: RAT, LIVER, S-9, AROCLOR 1254, Method: SUSPENSION/PLATE
  mutagenic call: inactive; negative

## CCCC(=O)OCc1ccc([N+](=O)[O-])cc1
[1]
  mutagenic call: inactive; negative
Test System: AMES SALMONELLA TYPHIMURIUM, Strain/Indicator: TA100(NR), Metabolic Activation: NONE, Method: PREINCUBATION
  mutagenic call: inactive; negative
[2]
  mutagenic call: active; positive
Test System: AMES SALMONELLA TYPHIMURIUM, Strain/Indicator: TA100, Metabolic Activation: RAT, LIVER, S-9, AROCLOR 1254, Method: PREINCUBATION
  mutagenic call: active; positive
